The values below are quoted from earlier work in patent publication US7087617B2, “Substituted pyrimidine derivatives” (Pfizer Inc., priority 2003, dated 2006).

The conditions of the data set: for effect on the "anxiogenic" effects / actions of CRF in the conflict test: rats, CRF-induced effects.

Turning to `CNC(=O)c1cc2c(cn1)[nH]c1ccccc12` [FG 7142], the “effect on the "anxiogenic" effects / actions of CRF in the conflict test” value is reported as “enhanced the actions of CRF”.

Take `CCOC(=O)c1ncn2c1CN(C)C(=O)c1cc(F)ccc1-2` [Ro 15-1788]: the “effect on the "anxiogenic" effects / actions of CRF in the conflict test” value is “reversed the effects of CRF in a dose-dependent manner”. Moreover, where the note is “compound alone, without CRF”, the “behavioral activity alone in the operant conflict test” value is recorded as “without behavioral activity alone”.
